Holding throughout (assay type): cell-based
One assay has as its target hGLP-1R (Homo sapiens, UniProt P43220). In words: Functional cAMP formation (HTRF) in HEK-293 clonal cells expressing hGLP-1R, 0.1% bovine casein, without or with 1.0% human serum albumin. The arrangement: expressed in transfected cells. To be noted: for EC50: cAMP, 0.1% bovine casein (no human serum albumin), geometric mean. Summed up: (§1)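 Cells were stimulated with peptide for 30 min at 37° C, then intracellular cAMP was measured by competitive HTRF (665/620 nm ratio) and converted to nM using a cAMP standard curve. Relative EC50 and Emax came from four-parameter logistic fits of percent maximal response against peptide concentration.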
For orientation: cAMP levels reflect the balance of adenylyl cyclase and phosphodiesterase activity.

Another assay deals with T1, hGCGR (Homo sapiens, UniProt P47871).
T1 construct: expressed in transfected cells
T1 sequence (P47871 26-477): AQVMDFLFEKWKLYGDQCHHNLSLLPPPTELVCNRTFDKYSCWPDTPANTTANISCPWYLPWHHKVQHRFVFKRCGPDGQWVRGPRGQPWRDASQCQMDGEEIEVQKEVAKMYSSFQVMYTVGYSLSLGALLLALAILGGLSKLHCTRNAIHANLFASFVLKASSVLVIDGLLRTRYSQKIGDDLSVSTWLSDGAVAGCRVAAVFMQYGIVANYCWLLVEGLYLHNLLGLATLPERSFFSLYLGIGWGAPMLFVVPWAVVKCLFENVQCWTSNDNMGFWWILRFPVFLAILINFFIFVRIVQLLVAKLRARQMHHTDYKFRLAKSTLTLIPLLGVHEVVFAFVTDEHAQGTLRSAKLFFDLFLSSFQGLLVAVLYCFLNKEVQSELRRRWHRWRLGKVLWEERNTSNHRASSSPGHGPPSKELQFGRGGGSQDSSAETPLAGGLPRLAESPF
Kind of assay: Functional cAMP formation (HTRF) in HEK-293 clonal cells expressing hGCGR, 0.1% bovine casein, without or with 1.0% human serum albumin. Summed up: as §1

Another assay concerns the target T2, hGIPR (Homo sapiens, UniProt P48546).
T2 construct: expressed in transfected cells
T2 sequence (P48546 22-466): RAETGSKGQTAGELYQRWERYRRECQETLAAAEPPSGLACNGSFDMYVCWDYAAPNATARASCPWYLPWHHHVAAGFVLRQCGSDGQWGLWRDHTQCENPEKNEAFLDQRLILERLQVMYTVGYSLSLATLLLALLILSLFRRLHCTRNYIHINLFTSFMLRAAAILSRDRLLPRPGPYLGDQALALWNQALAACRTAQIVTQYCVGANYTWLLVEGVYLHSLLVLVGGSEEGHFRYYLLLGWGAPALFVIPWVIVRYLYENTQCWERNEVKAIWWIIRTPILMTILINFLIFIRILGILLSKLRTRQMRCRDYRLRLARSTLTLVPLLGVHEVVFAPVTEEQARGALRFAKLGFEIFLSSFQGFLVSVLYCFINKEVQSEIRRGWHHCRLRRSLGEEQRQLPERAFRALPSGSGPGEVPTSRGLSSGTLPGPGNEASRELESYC
Kind of assay: Functional cAMP formation (HTRF) in HEK-293 clonal cells expressing hGIPR, 0.1% bovine casein, without or with 1.0% human serum albumin. To be noted: for Emax: percent of maximal response to GIP(1-42)NH2; for EC50: cAMP, 0.1% bovine casein (no human serum albumin), geometric mean. In short, it runs like this: as §1

The structures appear in SMILES notation. Like-named read-outs stand apart in the source and are kept apart here. *1 amine or outer side, *2 acyl side, *3 side chain or, on linkers, in order; H or OH if unused. Where a SMILES comes first, the peptide text is derived from it. Side-chain parts run from the residue outwards. [ ]: non-standard residue; d: D form. The star is where a group is joined. αMePhe(2-F) = C[C@](N)(Cc1ccccc1F)C(=O)O; γGlu = O=C(O)[C@H](CCC(=O)[*:2])N[*:1]; C14 diacid = O=C(O)CCCCCCCCCCCCC(=O)*; αMeY = C[C@](N)(Cc1ccc(O)cc1)C(=O)O; 4Pal = N[C@@H](Cc1ccncc1)C(=O)O; αMeL = CC(C)C[C@](C)(N)C(=O)O; Orn = NCCC[C@H](N)C(=O)O; AEEA = NCCOCCOCC(=O)O; Aib = CC(C)(N)C(=O)O

hGLP-1R, sequence (P43220 24-463): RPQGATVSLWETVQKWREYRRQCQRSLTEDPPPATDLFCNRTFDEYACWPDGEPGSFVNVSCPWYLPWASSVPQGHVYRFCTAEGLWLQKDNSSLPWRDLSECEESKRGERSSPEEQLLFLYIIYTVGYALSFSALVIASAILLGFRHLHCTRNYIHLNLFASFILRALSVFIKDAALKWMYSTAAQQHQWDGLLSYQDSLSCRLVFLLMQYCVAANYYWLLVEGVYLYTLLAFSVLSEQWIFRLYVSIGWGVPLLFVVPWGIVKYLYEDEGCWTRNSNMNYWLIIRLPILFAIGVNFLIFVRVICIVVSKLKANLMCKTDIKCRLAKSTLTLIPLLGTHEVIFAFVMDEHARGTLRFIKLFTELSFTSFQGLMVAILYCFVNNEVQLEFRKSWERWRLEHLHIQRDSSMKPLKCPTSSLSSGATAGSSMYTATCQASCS

In the case of `CC[C@H](C)[C@H](NC(=O)[C@H](CCCN)NC(=O)[C@H](CC(=O)O)NC(=O)[C@H](CC(C)C)NC(=O)[C@](C)(CC(C)C)NC(=O)[C@@H](NC(=O)C(C)(C)NC(=O)[C@H](Cc1ccc(O)cc1)NC(=O)[C@H](CC(=O)O)NC(=O)[C@H](CO)NC(=O)[C@@H](NC(=O)[C@](C)(Cc1ccccc1F)NC(=O)[C@@H](NC(=O)CNC(=O)[C@H](CCC(=O)O)NC(=O)C(C)(C)NC(=O)[C@@H](N)Cc1ccc(O)cc1)[C@@H](C)O)[C@@H](C)O)[C@@H](C)CC)C(=O)N[C@@H](C)C(=O)N[C@@H](CCC(N)=O)C(=O)NC(C)(C)C(=O)N[C@@H](CCC(=O)O)C(=O)N[C@@H](Cc1ccccc1)C(=O)N[C@H](C(=O)N[C@@H](CCCCNC(=O)COCCOCCNC(=O)CC[C@H](NC(=O)COCCOCCNC(=O)CCCCCCCCCCCCC(=O)O)C(=O)O)C(=O)N[C@@](C)(Cc1ccc(O)cc1)C(=O)N[C@@H](CC(C)C)C(=O)N[C@H](C(=O)N[C@@H](CCCCNC(=O)COCCOCCNC(=O)CC[C@H](NC(=O)COCCOCCNC(=O)CCCCCCCCCCCCC(=O)O)C(=O)O)C(=O)NCC(=O)NCC(=O)N1CCC[C@H]1C(=O)N[C@@H](CO)C(=O)N[C@@H](CO)C(=O)NCC(=O)N[C@@H](C)C(=O)N1CCC[C@H]1C(=O)N1CCC[C@H]1C(=O)N1CCC[C@H]1C(=O)N[C@@H](CO)C(N)=O)[C@@H](C)CC)[C@@H](C)CC` [Example 365], the maximum response (Emax) (usually the maximal effect, on the per cent scale that the assay sets) stood at 91% at hGLP-1R (HEK293, cAMP, 37° C., 0.1% bovine casein and 1.0% human serum albumin, percent of maximal response to GLP-1(7-36)NH2, read-out: hGLP-1R Emax, % ± SEM); 98.5% at hGLP-1R (HEK293, cAMP, 37° C., 0.1% bovine casein, percent of maximal response to GLP-1(7-36)NH2, arithmetic mean, read-out: hGLP-1R Emax, % ± SEM); 93.5% at hGIPR (HEK293, cAMP, 37° C., 0.1% bovine casein and 1.0% human serum albumin, read-out: hGIPR Emax, % ± SEM); 105% at hGIPR (HEK293, cAMP, 37° C., 0.1% bovine casein, arithmetic mean, read-out: hGIPR Emax, % ± SEM). Moreover, the 50% effective concentration (EC50) (commonly the concentration giving half of the maximal effect) at hGLP-1R (37° C., read-out: hGLP-1R EC50, nM (SEM, n)) is 0.362 nM; on hGCGR (cAMP, 37° C., 0.1% bovine casein (no human serum albumin), geometric mean, read-out: hGCGR EC50, nM (SEM, n)) it was more than 9950 nM; at hGCGR (cAMP, 37° C., 0.1% bovine casein and 1.0% human serum albumin, geometric mean (SEM, n), read-out: hGCGR EC50, nM (SEM, n)), more than 9950 nM; on hGIPR (37° C., read-out: hGIPR EC50, nM (SEM, n)) it was 0.00809 nM.
For `CC[C@H](C)[C@H](NC(=O)[C@H](CCCN)NC(=O)[C@H](CC(=O)O)NC(=O)[C@H](CC(C)C)NC(=O)[C@](C)(CC(C)C)NC(=O)[C@@H](NC(=O)[C@H](CO)NC(=O)[C@H](Cc1ccncc1)NC(=O)[C@H](CC(=O)O)NC(=O)[C@H](CO)NC(=O)[C@@H](NC(=O)[C@](C)(Cc1ccccc1F)NC(=O)[C@@H](NC(=O)CNC(=O)[C@H](CCC(=O)O)NC(=O)C(C)(C)NC(=O)[C@@H](N)Cc1ccc(O)cc1)[C@@H](C)O)[C@@H](C)O)[C@@H](C)CC)C(=O)N[C@@H](C)C(=O)N[C@@H](CCC(N)=O)C(=O)NC(C)(C)C(=O)N[C@@H](CCC(=O)O)C(=O)N[C@@H](Cc1ccccc1)C(=O)N[C@H](C(=O)N[C@H](CCC(=O)O)C(=O)N[C@@](C)(Cc1ccc(O)cc1)C(=O)N[C@@H](CC(C)C)C(=O)N[C@H](C(=O)N[C@@H](CCCCNC(=O)COCCOCCNC(=O)COCCOCCNC(=O)COCCOCCNC(=O)CC[C@H](NC(=O)CCCCCCCCCCCCC(=O)O)C(=O)O)C(=O)NCC(=O)NCC(=O)N1CCC[C@H]1C(=O)N[C@@H](CO)C(=O)N[C@@H](CO)C(=O)NCC(=O)N[C@@H](C)C(=O)N1CCC[C@H]1C(=O)N1CCC[C@H]1C(=O)N1CCC[C@H]1C(=O)N[C@@H](CO)C(=O)N[C@@H](CCCCNC(=O)COCCOCCNC(=O)COCCOCCNC(=O)COCCOCCNC(=O)CC[C@H](NC(=O)CCCCCCCCCCCCC(=O)O)C(=O)O)C(N)=O)[C@@H](C)CC)[C@@H](C)CC` [Example 229] (H-Y[Aib]EGT[αMePhe(2-F)]TSD[4Pal]SI[αMeL]LD[Orn]IAQ[Aib]EFI[dE][αMeY]LIK([AEEA-AEEA-AEEA-γGlu-C14 diacid])GGPSSGAPPPSK([AEEA-AEEA-AEEA-γGlu-C14 diacid])-NH2), the maximal response (Emax) on hGLP-1R (HEK293, 0.1% bovine casein and 1.0% human serum albumin, 37° C., percent of maximal response to GLP-1(7-36)NH2, read-out: hGLP-1R Emax, % ± SEM) stood at 99%; on hGLP-1R (HEK293, percent of maximal response to GLP-1(7-36)NH2, 37° C., 0.1% bovine casein, arithmetic mean, read-out: hGLP-1R Emax, % ± SEM), 94.3%; on hGIPR (HEK293, 0.1% bovine casein and 1.0% human serum albumin, 37° C., read-out: hGIPR Emax, % ± SEM), 80.5%. The 50% effective concentration (EC50) is 2.25 nM on hGLP-1R (incubated at 37° C., read-out: hGLP-1R EC50, nM (SEM, n)); more than 9950 nM on hGCGR (0.1% bovine casein and 1.0% human serum albumin, 37° C., geometric mean, read-out: hGCGR EC50, nM (SEM, n)); more than 9950 nM at hGCGR (cAMP, incubated at 37° C., 0.1% bovine casein (no human serum albumin), geometric mean, read-out: hGCGR EC50, nM (SEM, n)); 0.0253 nM at hGIPR (incubated at 37° C., read-out: hGIPR EC50, nM (SEM, n)).
For the compound `CC[C@H](C)[C@H](NC(=O)[C@H](CCCN)NC(=O)[C@H](CC(=O)O)NC(=O)[C@H](CC(C)C)NC(=O)[C@](C)(CC(C)C)NC(=O)[C@@H](NC(=O)C(C)(C)NC(=O)[C@H](Cc1ccncc1)NC(=O)[C@H](CC(=O)O)NC(=O)[C@H](CO)NC(=O)[C@@H](NC(=O)[C@](C)(Cc1ccccc1F)NC(=O)[C@@H](NC(=O)CNC(=O)[C@H](CCC(=O)O)NC(=O)C(C)(C)NC(=O)[C@@H](N)Cc1ccc(O)cc1)[C@@H](C)O)[C@@H](C)O)[C@@H](C)CC)C(=O)N[C@@H](C)C(=O)N[C@@H](CCC(N)=O)C(=O)NC(C)(C)C(=O)N[C@@H](CCCCNC(=O)COCCOCCNC(=O)COCCOCCNC(=O)CC[C@H](NC(=O)CCCCCCCCCOc1ccc(C(=O)O)cc1)C(=O)O)C(=O)N[C@@H](Cc1ccccc1)C(=O)N[C@H](C(=O)N[C@H](CCC(=O)O)C(=O)N[C@@](C)(Cc1ccc(O)cc1)C(=O)N[C@@H](CC(C)C)C(=O)N[C@H](C(=O)N[C@@H](CCCCNC(=O)COCCOCCNC(=O)COCCOCCNC(=O)CC[C@H](NC(=O)CCCCCCCCCOc1ccc(C(=O)O)cc1)C(=O)O)C(=O)NCC(=O)NCC(=O)N1CCC[C@H]1C(=O)N[C@@H](CO)C(=O)N[C@@H](CO)C(=O)NCC(=O)N[C@@H](C)C(=O)N1CCC[C@H]1C(=O)N1CCC[C@H]1C(=O)N1CCC[C@H]1C(=O)N[C@@H](CO)C(N)=O)[C@@H](C)CC)[C@@H](C)CC` [Example 247], the maximal response (Emax) at hGLP-1R (HEK293, read-out: hGLP-1R Emax, % ± SEM, 0.1% bovine casein and 1.0% human serum albumin, 37° C., percent of maximal response to GLP-1(7-36)NH2) amounted to 109%; on hGIPR (HEK293, read-out: hGIPR Emax, % ± SEM, 0.1% bovine casein and 1.0% human serum albumin, 37° C.) it was 90.2%. Besides, the EC50 at hGLP-1R (hGLP-1R EC50, nM (SEM, n), incubated at 37° C.) was 1 nM; on hGCGR (hGCGR EC50, nM (SEM, n), 0.1% bovine casein and 1.0% human serum albumin, 37° C., geometric mean), more than 9950 nM; on hGCGR (hGCGR EC50, nM (SEM, n), cAMP, incubated at 37° C., 0.1% bovine casein (no human serum albumin), geometric mean), more than 9950 nM; on hGIPR (hGIPR EC50, nM (SEM, n), incubated at 37° C.), 0.022 nM.

(Values after patent US20230265151A1, “GIP/GLP1 CO-AGONIST COMPOUNDS” (priority 2020, published 2023).)
